Data: ChEMBL document CHEMBL1201862, “PubChem BioAssay data set” (2004)
Active and inactive are the calls of the source.

Key:
[1] = test system: Streptococcus sp. 'group A'; assay: growth inhibition of control SK(-) GAS strain, dose response, counter-screen for streptokinase expression inhibitor project, luminescence, kanamycin, BacTiterGlo, confirmation (AID 1900); format: functional, organism-based
[2] = cytotoxicity toward NIH3T3 fibroblasts, dose response, counter-screen, cell-based, ATP luminescence, mouse fibroblasts (AID 2010); format: functional;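 also: cells exposed to compound for about 90 hours before reading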
[3] = inhibitors of intracellular T. cruzi replication, confirmation, NIH3T3 host cells, beta-gal luminescence (AID 2044); format: functional, cell-based;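 also: intracellular parasites grown in NIH/3T3 mouse fibroblasts as host cells; luminescent beta-galactosidase reporter signal from transgenic T. cruzi replicating inside host cells; inhibitors lower the luminescence signal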
[4] = microbe, parasite or virus in culture; format: functional; settings: Mycobacterium tuberculosis
Streptokinase A = target: T1, Streptokinase A (Streptococcus pyogenes serotype M1, UniProt P10520); assay: S. pyogenes streptokinase expression inhibitors, potency, dose response, plasminogen activation absorbance, OD405 (AID 1914); format: functional, Streptococcus pyogenes M1 GAS;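 also: secreted streptokinase activity via plasminogen activation per viability signal from cell pellet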
T1 sequence (P10520 whole entry): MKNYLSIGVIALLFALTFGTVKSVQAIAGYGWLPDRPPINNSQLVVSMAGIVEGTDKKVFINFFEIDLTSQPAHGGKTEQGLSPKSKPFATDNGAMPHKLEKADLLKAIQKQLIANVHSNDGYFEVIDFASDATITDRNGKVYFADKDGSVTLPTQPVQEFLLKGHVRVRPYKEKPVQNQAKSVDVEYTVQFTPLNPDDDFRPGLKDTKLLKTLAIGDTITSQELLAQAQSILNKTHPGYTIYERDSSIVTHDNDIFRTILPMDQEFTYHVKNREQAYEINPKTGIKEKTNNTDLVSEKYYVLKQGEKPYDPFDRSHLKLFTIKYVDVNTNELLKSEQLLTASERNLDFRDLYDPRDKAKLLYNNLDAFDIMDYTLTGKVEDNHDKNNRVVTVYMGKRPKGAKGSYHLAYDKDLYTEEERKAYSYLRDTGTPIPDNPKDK

Streptococcus [5] = assay: Luminescence Microorganism-Based Dose Response Follow up to Identify Compounds Cytotoxic to Streptococcus. [Related pubchem assays: 1677 (Project Summary), 1915, 1914, 1902 (Retest at Dose), 1900 (Counter Screen), 1662 (Primary HTS)]; format: functional, organism-based
Streptococcus [6] = assay: Group A Streptococcus viability loss, dose response, counter-screen for streptokinase expression inhibitor project, luminescence, BacTiterGlo (AID 1915); format: functional, organism-based;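 also: potency for reduction of bacterial viability or growth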
[7] = target: T2, Neuropeptide Y receptor type 2 (Homo sapiens, UniProt P49146); format: functional, cell-based;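 as to IC50: HEK293 cells expressing the receptor and a CNG channel; stimulus was NPY near EC95 followed by isoproterenol to raise cAMP; antagonist potency measured as restoring cAMP signal that NPY suppresses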
T2 sequence (P49146 whole entry): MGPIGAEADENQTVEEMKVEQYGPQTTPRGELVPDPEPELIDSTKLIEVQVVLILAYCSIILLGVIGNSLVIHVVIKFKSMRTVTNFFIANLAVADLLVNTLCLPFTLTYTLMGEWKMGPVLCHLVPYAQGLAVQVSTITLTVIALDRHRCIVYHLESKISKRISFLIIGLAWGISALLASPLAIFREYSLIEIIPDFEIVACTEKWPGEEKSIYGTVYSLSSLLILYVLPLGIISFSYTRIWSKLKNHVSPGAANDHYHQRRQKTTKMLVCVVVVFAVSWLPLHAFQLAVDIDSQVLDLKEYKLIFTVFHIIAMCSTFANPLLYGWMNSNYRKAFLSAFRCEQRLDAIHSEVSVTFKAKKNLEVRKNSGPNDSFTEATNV

[8] = target: T3, Neuropeptide Y receptor type 1 (Homo sapiens, UniProt P25929); format: functional;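 as to IC50: HEK293 cells with a CNG channel challenged with NPY then isoproterenol; potency as antagonist that reverses NPY suppression of cAMP signal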
T3 sequence (P25929 whole entry): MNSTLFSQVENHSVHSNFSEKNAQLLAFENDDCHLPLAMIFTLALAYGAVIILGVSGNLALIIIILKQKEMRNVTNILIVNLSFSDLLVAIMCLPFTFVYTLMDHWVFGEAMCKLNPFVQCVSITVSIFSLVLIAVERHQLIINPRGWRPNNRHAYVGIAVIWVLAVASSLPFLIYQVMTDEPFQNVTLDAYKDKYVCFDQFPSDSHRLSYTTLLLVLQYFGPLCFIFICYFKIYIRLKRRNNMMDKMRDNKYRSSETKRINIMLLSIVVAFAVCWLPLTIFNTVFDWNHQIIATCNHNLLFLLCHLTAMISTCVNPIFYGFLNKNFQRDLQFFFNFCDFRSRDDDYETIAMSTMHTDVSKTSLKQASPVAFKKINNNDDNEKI

[9] = enhancers of respiration in Yfh1-depleted yeast, dose response, Friedreich's ataxia, plus single-dose screen (AID 1465); format: functional;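 also: yeast depleted of Yfh1p frataxin homolog grown on glycerol needing respiration; WST-1 tetrazolium dye reduction as measure of cellular dehydrogenase metabolic activity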
[10] = polyadenylation inhibitors in yeast reporter, dose response, luminescence, S. cerevisiae SKY197-pL101 (AID 2525); format: functional, cell-based
[11] = Luminescence Cell-Based Dose Confirmation HTS to Identify Inhibitors of Polyadenylation.; format: functional
[12] = target: T2, Neuropeptide Y receptor type 2; assay: Fluorescence-based counterscreen for agonists of NPY-Y1: cell-based high-throughput dose response assay for agonists of NPY-Y2.; format: functional
HEK293 = assay: Fluorescence-based counterscreen for potentiators or agonists of NPY-Y1: cell-based high-throughput dose response assay for inhibitors of cyclic nucleotide gated ion channel (CNGC) activity. In this assay, the parental HEK293 cell line transfected with a cyclic-nucleotide gated ion channel (CNGC)-based cAMP sensor is used to measure inhibition of isoproterenol-induced CNGC …; format: functional; settings: Homo sapiens
[13] = Luminescence Cell-Based Dose Retest to Confirm Inhibitors of Cancer Stem Cells. [Related pubchem assays (depositor defined):AID2717, AID2721]; format: functional; settings: Homo sapiens
INS1 = assay: beta cell apoptosis inhibitors, cytokine rescue, dose response, luminescence, retest (AID 449756); format: functional, cell-based; settings: Rattus norvegicus;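 also: cell death triggered by IL-1 beta plus TNF-alpha plus IFN-gamma mixture; protective hits raise ATP signal compared with cytokine alone wells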
Vero = assay: cells; format: functional; settings: Chlorocebus sabaeus
Beta-galactosidase = Beta-galactosidase (Escherichia coli, UniProt Q8VNN2); assay: Dose response counterscreen for EBI2 assay utilizing the enzyme, b-galactosidase.; format: functional
Beta-galactosidase, sequence (Q8VNN2 whole entry): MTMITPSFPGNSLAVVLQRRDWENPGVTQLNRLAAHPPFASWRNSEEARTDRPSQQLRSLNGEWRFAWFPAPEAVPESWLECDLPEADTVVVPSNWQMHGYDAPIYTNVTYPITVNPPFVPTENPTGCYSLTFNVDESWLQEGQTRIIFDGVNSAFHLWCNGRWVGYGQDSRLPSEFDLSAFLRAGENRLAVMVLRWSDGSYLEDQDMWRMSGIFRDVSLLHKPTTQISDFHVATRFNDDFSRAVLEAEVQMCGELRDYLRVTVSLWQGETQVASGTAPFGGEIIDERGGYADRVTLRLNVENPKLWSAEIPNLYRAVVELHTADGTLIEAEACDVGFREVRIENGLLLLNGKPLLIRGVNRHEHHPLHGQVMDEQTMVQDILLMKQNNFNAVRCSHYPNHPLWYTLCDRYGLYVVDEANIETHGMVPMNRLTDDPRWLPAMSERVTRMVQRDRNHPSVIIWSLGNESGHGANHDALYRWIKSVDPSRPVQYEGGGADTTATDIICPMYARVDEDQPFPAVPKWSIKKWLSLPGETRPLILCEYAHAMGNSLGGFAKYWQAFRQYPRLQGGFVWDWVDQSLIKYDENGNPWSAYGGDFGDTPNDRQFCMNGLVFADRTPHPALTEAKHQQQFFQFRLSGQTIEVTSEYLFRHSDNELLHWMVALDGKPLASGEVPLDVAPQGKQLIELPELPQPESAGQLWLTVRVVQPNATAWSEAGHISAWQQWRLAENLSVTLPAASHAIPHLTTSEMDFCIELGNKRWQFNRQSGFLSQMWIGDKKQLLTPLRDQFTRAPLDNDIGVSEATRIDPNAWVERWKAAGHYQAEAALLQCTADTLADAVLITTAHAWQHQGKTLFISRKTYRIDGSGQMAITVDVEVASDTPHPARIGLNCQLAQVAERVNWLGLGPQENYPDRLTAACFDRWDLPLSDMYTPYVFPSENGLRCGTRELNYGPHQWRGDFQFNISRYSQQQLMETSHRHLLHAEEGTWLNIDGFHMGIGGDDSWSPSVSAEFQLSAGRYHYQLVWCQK

[14] = target: T3, Neuropeptide Y receptor type 1; assay: Fluorescence-based dose response cell-based high-throughput screening assay for agonists of NPY-Y1. [Related pubchem assays: 1697 (Screening assay (NPY-Y1 agonists).), 1359 (Screening assay (NPY-Y2 potentiators or agonists).), 1304 (Screening assay (NPY-Y1 potentiators or agonists).), 1704 (Screening assay (CNGC inhibitors).), 1791 (Summary AID.)]; format: functional

Cc1cc(C)c2nc(-c3ccncc3)cc(C(=O)N3CCN(Cc4ccccc4Cl)CC3)c2c1
EC50 [1]: 3.71 µM (active)
EC50 [2]: > 60 µM (not active)
EC50 [3]: 2.35 µM (active)
CC50 [4]: > 40 µM (active)
EC50 (Streptokinase A): 10.3 µM (active)
EC50 (Streptococcus [5]): 9.94 µM (active)
EC50 (Streptococcus [6]): > 150 µM (not active)

CCOc1nc(SCCOc2ccc(Cl)cc2Cl)nc(N(C)C)n1
IC50 [7]: 5.52 µM (active)
IC50 [8]: 5.54 µM (active)

CC1(OC(=O)C2CCCC2)C(=O)C=C2C=C(c3ccsc3)N(Cc3ccco3)C=C2C1=O (centres undefined)
EC50 [9]: > 100 µM (active)

CC(=O)c1ccc(Sc2ccccc2)c([N+](=O)[O-])c1
EC50 [10]: 2.88 µM (active)
EC50 [11]: 11.4 µM (active)

O=C(c1cc(-c2cccc(O)c2)on1)N1CCN(C(c2ccccc2)c2ccccc2)CC1
EC50 [12]: > 35.4 µM (not active)
IC50 (HEK293): > 35.4 µM (not active)
AC50 [13]: 1.58 µM (active)
AC50 (INS1): 9.7 µM (active)
CC50 (Vero): 15.4 µM (active)
IC50 (Beta-galactosidase): 151 µM (inactive)
EC50 [14]: > 35.4 µM (not active)
